The source of these data is paper PMC6269433, “Biocatalytic production of adiponitrile and related aliphatic linear α,ω-dinitriles” (Nature Communications, 2018).

Common to all, as to type: cell-based
The target in assay [1] is T1, OxdA (Pseudomonas chlororaphis, UniProt Q7WSJ4).
T1 construct: recombinant in E. coli, resting whole cells; plasmid details only in supplement; ferrous heme enzyme
T1 sequence (Q7WSJ4 1-352): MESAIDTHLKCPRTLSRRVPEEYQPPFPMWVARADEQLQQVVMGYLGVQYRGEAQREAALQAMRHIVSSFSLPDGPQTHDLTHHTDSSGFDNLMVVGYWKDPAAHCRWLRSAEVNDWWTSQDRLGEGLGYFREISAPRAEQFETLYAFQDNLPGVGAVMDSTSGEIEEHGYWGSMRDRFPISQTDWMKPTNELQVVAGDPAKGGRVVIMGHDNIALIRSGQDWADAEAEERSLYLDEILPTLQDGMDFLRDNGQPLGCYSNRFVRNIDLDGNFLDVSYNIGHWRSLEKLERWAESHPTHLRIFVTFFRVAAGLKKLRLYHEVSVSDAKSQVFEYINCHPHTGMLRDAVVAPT
Briefly: whole-cell dehydration to the dinitrile, analytical scale. As to conditions: E. coli resting cells; substrate 3.0-75 mM range; activity only per bio wet weight.

Assay [2] has as its target T2, OxdB (Bacillus sp. OxB-1, UniProt P82604).
T2 construct: gene oxd; recombinant in E. coli, resting whole cells; plasmid details only in supplement; ferrous heme enzyme
T2 sequence (P82604 2-351): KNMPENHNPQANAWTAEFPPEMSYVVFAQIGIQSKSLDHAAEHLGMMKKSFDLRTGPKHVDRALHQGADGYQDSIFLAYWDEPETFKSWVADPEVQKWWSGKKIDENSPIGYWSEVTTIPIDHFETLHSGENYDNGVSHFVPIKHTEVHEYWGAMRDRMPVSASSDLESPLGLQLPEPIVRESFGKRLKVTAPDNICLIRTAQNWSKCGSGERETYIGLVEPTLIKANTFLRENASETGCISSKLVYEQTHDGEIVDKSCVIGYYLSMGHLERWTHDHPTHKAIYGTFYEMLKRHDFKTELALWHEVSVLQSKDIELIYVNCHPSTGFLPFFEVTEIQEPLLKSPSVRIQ
The assay is described as above. As to conditions: E. coli resting cells; substrate 3.0-75 mM range; activity only per bio wet weight.

For assay [3], the target named is T1, OxdA. Briefly: whole-cell dehydration to adiponitrile, GC. The note with it: E. coli resting cells, 50 mM potassium phosphate pH 7.0, 30 °C, argon, with or without 20% DMSO; activity only per bio wet weight.
Assay [4] deals with T2, OxdB. Briefly: whole-cell dehydration to adiponitrile, GC. As to conditions: E. coli resting cells, 50 mM potassium phosphate pH 7.0, 30 °C, argon, with or without 20% DMSO; activity only per bio wet weight.

Each structure is given as a SMILES string.

Regarding `ON=CCCCCCCC=NO` [1f, C8-dialdoxime], the “whole-cell dehydration to the dinitrile, analytical scale” value on OxdA [1] and on OxdB [2] was “the C6-C10-dialdoximes (1d-h) were converted by both Oxds completely with excellent efficiency” throughout.

On to `ON=CCCCCC=NO` [1d, adipaldehyde dioxime], for which the “whole-cell dehydration to adiponitrile, GC” value on OxdA [3] and on OxdB [4] was “the C6-C10-dialdoximes (1d-h) were converted by both Oxds completely with excellent efficiency” in each case.
